{"source": "paper PMC10976246", "about": "“Amide-to-Triazole Switch in Somatostatin-14-Based Radioligands: Impact on Receptor Affinity and In Vivo Stability” (Pharmaceutics, 2024)", "key": {"hSST3R": {"biological_target": "T1, hSST3R (Homo sapiens, UniProt P32745)", "T1 construct": "S. Schultz (Jena, Germany); host or cells: HEK293", "T1 sequence (P32745 whole entry)": "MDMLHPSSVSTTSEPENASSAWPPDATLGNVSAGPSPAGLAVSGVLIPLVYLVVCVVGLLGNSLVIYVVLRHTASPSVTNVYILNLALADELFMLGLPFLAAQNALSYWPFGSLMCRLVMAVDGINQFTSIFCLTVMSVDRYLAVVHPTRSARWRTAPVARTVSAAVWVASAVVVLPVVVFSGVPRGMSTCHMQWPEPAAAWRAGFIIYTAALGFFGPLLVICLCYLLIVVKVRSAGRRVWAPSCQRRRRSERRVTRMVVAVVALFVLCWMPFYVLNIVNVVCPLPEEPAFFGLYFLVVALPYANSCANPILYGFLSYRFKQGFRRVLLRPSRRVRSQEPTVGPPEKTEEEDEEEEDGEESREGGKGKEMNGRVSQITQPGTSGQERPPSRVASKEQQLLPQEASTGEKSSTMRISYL", "assay": "Competition binding against [125I][I-Tyr25]LTT-SST-28, HEK293-SST3R cell membranes", "conditions": "vs [125I][I-Tyr25]LTT-SST-28, 1 h at 22 °C, mean ± sd", "procedure": "After an incubation period of 1 h at 22 °C, the reaction was stopped by dilution with ice-cold washing buffer (10 mM HEPES at pH 7.4, 150 mM NaCl, 3 mL). The samples were filtered through 1%PEI presoaked glass fiber filters using a Brandel® cell harvester. After thorough washing with ice-cold washing buffer (2 × 3 mL), the filters were collected and measured in the γ-counter."}, "[1]": {"biological_target": "T2, SST2R-expressing AR42J cells (Rattus norvegicus, UniProt P30680)", "T2 construct": "The SST2R-expressing rat pancreatic cells (AR42J) were cultured; host or cells: AR42J rat pancreatic cells", "T2 sequence (P30680 whole entry)": "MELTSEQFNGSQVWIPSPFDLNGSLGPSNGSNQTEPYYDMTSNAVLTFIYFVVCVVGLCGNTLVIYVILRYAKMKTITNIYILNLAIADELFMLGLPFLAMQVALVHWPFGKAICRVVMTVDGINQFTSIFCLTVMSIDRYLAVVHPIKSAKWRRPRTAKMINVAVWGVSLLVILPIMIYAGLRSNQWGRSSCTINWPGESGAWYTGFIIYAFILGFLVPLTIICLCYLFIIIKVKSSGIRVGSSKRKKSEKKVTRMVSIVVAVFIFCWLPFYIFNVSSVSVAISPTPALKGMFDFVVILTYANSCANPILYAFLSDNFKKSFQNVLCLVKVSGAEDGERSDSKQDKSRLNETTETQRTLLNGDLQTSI", "assay": "Receptor saturation binding assay in AR42J cells", "conditions": "2 h, n = 2–3 in triplicates", "procedure": "AR42J cells were seeded in six-well plates (1 × 10^6 cells/well) 2 days before the assay. One hour prior to the experiment, the medium was removed, the cells were washed with PBS (1 mL) and fresh assay medium (DMEM with Glutamax-1 and supplemented with 1% FBS (v/v)) was added (1.3 mL/well). […] The determination of the unspecific binding was conducted by incubating each test radioligand in the presence of excess TATE, which was added in 100 μL of PBS to a final concentration of 5 µM. The six-well plates were incubated under standard culturing conditions for 2 h; the medium was removed, the cells were washed with PBS (2 × 1 mL) and lysed as described above. The cell lysates were collected and measured in the γ-counter."}, "in vitro": {"assay": "in vitro", "format": "in vitro ADME", "conditions": "human, plasma", "experimental": "Plasma stability studies were conducted in vitro by incubating the radioligands (in 100 µL PBS) in 1400 µL of human blood plasma (H4522–20ML, Sigma-Aldrich, Vienna, Austria) to a final concentration of 250 nM (approximately 5 MBq). After an incubation period of 6 h at 37 °C, aliquots of 100 µL were mixed with 100 µL of MeCN for protein precipitation. The mixtures were vortexed and centrifuged for 10 min (15,000× g) at 5 °C and the supernatants were collected. The supernatants (50 µL) were mixed with 0.1% aqueous TFA (50 µL) for posterior γ-HPLC analyses on a Chromolith® RP-18 performance column (2 µm, 4.6 mm × 100 mm; Merck Millipore, Vienna, Austria) eluted at a flow rate of 3 mL/min with the linear gradient from 90% A/10% B to 50% A/50% B in 14 min (A: 0.1% aqueous TFA and B: MeCN) (n = 2)."}, "HEK293-hSST2R xenografts": {"test_system": "HEK293-hSST2R xenografts", "conditions": "male, SCID, mouse, in vivo, iv, 3 nmol, 4 h"}, "in vivo": {"assay": "in vivo", "conditions": "male, SCID, mouse, iv, 3 nmol, total radioactivity"}}, "note": "Numbered stars: 1 amine (or outer) side, 2 acyl side, 3 side chain; on linkers, the order of the positions; unused ones are H or OH. Bridge positions count the residues as written; N and C are the ends. Square brackets hold non-standard residues; d marks the D form. Peptide text beside a SMILES is read from it. * marks the point of attachment. X2 = O=C([C@H](Cc1ccccc1)n1cc([C@H](Cc2ccccc2)N[*:1])nn1)[*:2]; X1 = NC(=O)C[C@H](N[*:1])c1cn([C@@H](Cc2ccccc2)C(=O)[*:2])nn1; DOTA = O=C(O)CN1CCN(CC(=O)O)CCN(CC(=O)*)CCN(CC(=O)O)CC1"}
{"molecule": "C[C@H](NC(=O)CN1CCN(CC(=O)O)CCN(CC(=O)O)CCN(CC(=O)O)CC1)C(=O)NCC(=O)N[C@H]1CSSC[C@@H](C(=O)O)NC(=O)[C@H](CO)NC(=O)[C@H]([C@@H](C)O)NC(=O)[C@H](Cc2ccccc2)NC(=O)[C@H]([C@@H](C)O)NC(=O)[C@H](CCCCN)NC(=O)[C@@H](Cc2c[nH]c3ccccc23)NC(=O)[C@H](Cc2ccccc2)NC(=O)[C@H](Cc2ccccc2)n2cc(nn2)[C@H](CC(N)=O)NC(=O)[C@H](CCCCN)NC1=O", "note": "[XG1, [DOTA,Asn^5-Ψ[Tz]-Phe^6, D-Trp^8]SST-14] ({DOTA}-AGCK[X1]F[dW]KTFTSC-OH; disulfide 3-13)", "values": [{"measurement": "IC50", "setting": "hSST3R", "value": "3 ± 0.9", "unit": "nM"}]}
{"molecule": "C[C@H](NC(=O)CN1CCN(CC(=O)O)CCN(CC(=O)O)CCN(CC(=O)O)CC1)C(=O)NCC(=O)N[C@H]1CSSC[C@@H](C(=O)O)NC(=O)[C@H](CO)NC(=O)[C@H]([C@@H](C)O)NC(=O)[C@H](Cc2ccccc2)NC(=O)[C@H]([C@@H](C)O)NC(=O)[C@H](CCCCN)NC(=O)[C@@H](Cc2c[nH]c3ccccc23)NC(=O)[C@H](Cc2ccccc2)n2cc(nn2)[C@H](Cc2ccccc2)NC(=O)[C@H](CC(N)=O)NC(=O)[C@H](CCCCN)NC1=O", "note": "[[^111In]In-XG2, metal not drawn] ({DOTA}-AGCKN[X2][dW]KTFTSC-OH; disulfide 3-13)", "values": [{"measurement": "Kd", "setting": "[1]", "value": "> 50", "unit": "nM"}]}
{"molecule": "C[C@H](NC(=O)CN1CCN(CC(=O)O)CCN(CC(=O)O)CCN(CC(=O)O)CC1)C(=O)NCC(=O)N[C@H]1CSSC[C@@H](C(=O)O)NC(=O)[C@H](CO)NC(=O)[C@H]([C@@H](C)O)NC(=O)[C@H](Cc2ccccc2)NC(=O)[C@H]([C@@H](C)O)NC(=O)[C@H](CCCCN)NC(=O)[C@@H](Cc2c[nH]c3ccccc23)NC(=O)[C@H](Cc2ccccc2)NC(=O)[C@H](Cc2ccccc2)NC(=O)[C@H](CC(N)=O)NC(=O)[C@H](CCCCN)NC1=O", "note": "[[^111In]In-AT2S, metal not drawn, reference compound]", "values": [{"measurement": "remaining at 6 h, 250 nM", "setting": "in vitro", "value": "> 90", "unit": "%"}, {"measurement": "Kd", "setting": "[1]", "value": "12 ± 3.88", "unit": "nM"}]}
{"molecule": "C[C@H](NC(=O)CN1CCN(CC(=O)O)CCN(CC(=O)O)CCN(CC(=O)O)CC1)C(=O)NCC(=O)N[C@H]1CSSC[C@@H](C(=O)O)NC(=O)[C@H](CO)NC(=O)[C@H]([C@@H](C)O)NC(=O)[C@H](Cc2ccccc2)NC(=O)[C@H]([C@@H](C)O)NC(=O)[C@H](CCCCN)NC(=O)[C@@H](Cc2c[nH]c3ccccc23)NC(=O)[C@H](Cc2ccccc2)NC(=O)[C@H](Cc2ccccc2)n2cc(nn2)[C@H](CC(N)=O)NC(=O)[C@H](CCCCN)NC1=O", "note": "[[^111In]In-XG1, metal not drawn] ({DOTA}-AGCK[X1]F[dW]KTFTSC-OH; disulfide 3-13)", "values": [{"measurement": "kidney uptake", "setting": "HEK293-hSST2R xenografts", "value": "> 200", "unit": "% IA/g"}, {"measurement": "remaining at 6 h, 250 nM", "setting": "in vitro", "value": "> 90", "unit": "%"}, {"measurement": "tissue uptake at 4 h", "setting": "in vivo; HEK293-hSST2R tumor uptake", "value": 1.61, "unit": "%ID/g"}, {"measurement": "tissue uptake at 4 h", "setting": "in vivo; kidney uptake", "value": 310, "unit": "%ID/g"}, {"measurement": "tissue uptake at 4 h", "setting": "in vivo; wtHEK293 (SST2R-negative) control tumor uptake", "value": 0.56, "unit": "%ID/g"}]}
